Earlier results as cited in EP1269978A2, “Use of bis-resorcinyltriazine derivatives in cosmetic or dermatological preparations” (Beiersdorf AG, priority 2001, dated 2003).

Conditions: n-Octanol / Wasser

log P-Wert: ~7
Compound: CC1=C(/C=C/C(C)=C/C=C/C(C)=C/CO)C(C)(C)CCC1 [Retinol]
